Experimental findings from US20220133688A1, “MACROCYCLIC LACTONE ANTHELMINTICS AGAINST NEMATODES” (Bayer Animal Health GmbH, priority 2019, published 2022) are described below.

Structures are written as SMILES. Several values for one entry are separate records, joined by “and”; a condition that tells them apart may be missing. Equal values may be shown once. Read-outs that look alike come from different tables or passages of the source.

Test [1] relates to D. immitis Mf, Missouri isolate. The test can be described thus: Cell attachment assay (canine PMN or PBMC attachment to Mf), Missouri isolate. In kind it is cell-based, Dirofilaria immitis.
Test [2] has as its system D. immitis Mf, Georgia-2 isolate. The test can be described thus: Cell attachment assay (canine PMN or PBMC attachment to Mf), Georgia-2 isolate. In kind it is cell-based, Dirofilaria immitis.

On to `CC[C@H](C)[C@H]1O[C@]2(CC[C@@H]1C)C[C@@H]1C[C@@H](C/C=C(\C)[C@@H](O[C@H]3C[C@H](OC)[C@@H](O[C@H]4C[C@H](OC)[C@@H](O)[C@H](C)O4)[C@H](C)O3)[C@@H](C)/C=C/C=C3\CO[C@@H]4[C@H](O)C(C)=C[C@@H](C(=O)O1)[C@]34O)O2` [IVM, ivermectin], for which, in test [1], the “Percentage (±SEM) of Mf with cells attached” value (“Percentage (±SEM) of Mf” below) was 48 ± 6% and 60 ± 3%; the “lowest drug concentration at which a statistically significant increase (p = <0.05) in cell attachment was observed compared to the no-drug control” value was 3 nM. Further, in test [2], the “Percentage (±SEM) of Mf” value is 41 ± 6% and 71 ± 5%; the “lowest drug concentration at which a statistically significant increase (p = <0.05) in cell attachment was observed compared to the no-drug control” value is 1 nM.
Consider `CO/N=C1\C[C@]2(C[C@@H]3C[C@@H](C/C=C(\C)C[C@@H](C)/C=C/C=C4\CO[C@@H]5[C@H](O)C(C)=C[C@@H](C(=O)O3)[C@]45O)O2)O[C@H](/C(C)=C/C(C)C)[C@H]1C` [MOX, moxidectin], for which the “Percentage (±SEM) of Mf” value is reported as 63 ± 5% in test [1] (PBMC, 1 μM drug, Missouri Mf); 65 ± 5% in test [1] (PMN, 1 μM drug, Missouri Mf); 63 ± 5% in test [2] (PBMC, 1 μM drug, Georgia-2 Mf); 54 ± 6% in test [2] (PMN, 1 μM drug, Georgia-2 Mf). Moreover, the “lowest drug concentration at which a statistically significant increase (p = <0.05) in cell attachment was observed compared to the no-drug control” value stood at 1 nM in test [1] (PBMC, 40 h, Missouri Mf, 2-way ANOVA); 3 nM in test [1] (PMN, 24 h, Missouri Mf, 2-way ANOVA); 1 nM in test [2] (PBMC, 40 h, Georgia-2 Mf, 2-way ANOVA); 3 nM in test [2] (PMN, 24 h, Georgia-2 Mf, 2-way ANOVA).
